What was measured:
β2AR = assay: Endosomal BRET assay of isoproterenol-mediated β2AR internalization; assay type: cell-based, human
From the text: We performed a HT campaign in HEK293 cells using the bystander endosomal BRET sensor, which consists of a Renilla luciferase (RlucII)-tagged AT1R and an acceptor renilla GFP (rGFP) anchored to endosomes through an Endofin-FYVE (Endo-rGFP) domain[12]. AngII-mediated trafficking of AT1R to endosomes was screened against commercial libraries of ~115,000 small molecules (Fig. 1a and Supplementary Data 1). Because our assay is based on luminescence and fluorescence, we excluded 6610 compounds that quenched more than 50% of the luciferase or GFP signals. After excluding 5 AT1R antagonists, we conserved hit compounds blocking by more than 40%, as well as those potentiating by more than 100% receptor internalization. From this collection of 943 compounds, a second validation on AT1R internalization was performed using the same BRET assay, as well as on the agonist-mediated B2R internalization, this time using B2R-RlucII and Endo-rGFP. Only compounds that were revalidated on AT1R and affected B2R endocytosis were kept, which included forty hits (20 potentiators and 20 inhibitors) (Fig. 1b and Supplementary Data 2). We focused on inhibitors that were commercially available at the beginning of the project and tested their cell toxicity by microscopy, looking at cells expressing B2R tagged with YFP, which highlights cell contours and potential morphological changes, such as rounding up of cells following treatment with 50 μM of the compounds that may have indicated cell death. None of the inhibitors tested caused abnormal cell morphological changes when cells were treated with compounds as compared to DMSO-treated cells. Inhibitors were also assessed in terms of structure novelty, derivatization potential, and commercial availability of analogs (within 95–98% similarity from Tanimoto metric, Sci-Finder, https://scifinder-n.cas.org), for structure-activity relationship studies (SAR). They were scored 1–5, from best to worst. We excluded compounds with potential nucleophilic reactivity (e.g., Michael addition: compounds 7, 26, and 27), those reported to have biological activities (compounds 8, 20, 25, 30, and 35) and/or showing autofluorescence (compound 26). Compound 19 ranked high, but only had one other molecule with a similar structure available. Although other molecules could be interesting in their own rights as endocytosis inhibitors (e.g., compounds 1, 9, 11, 12, 13, 24, 31, and 37), we focused on compound 21 (Fig. 1c) because not only did it rank high in our analysis, but it was also the only compound with substantially more similar analogs commercially available at the time of these investigations. In the screen and the follow-up validation assay, 21 inhibited more than 50% AT1R internalization and more than 65% B2R internalization (Supplementary Data 2). […] Because β-arrestins are critically involved in GPCR endocytosis and trafficking in cells, we assessed 21’s effects on β-arrestins’ recruitment to AT1R and B2R at the PM using a BRET assay, as well as their trafficking into endosomes by microscopy.
HEK293SL cells were seeded at a density of 7.5 × 10^5 cells per 100-mm dish and 24 h later, transiently transfected as such. For receptor internalization experiments, cells were transfected with 0.12 μg AT1R-RlucII, B2R-RlucII, or β2AR-RlucII and 0.48 μg of either rGFP-CAAX (to assess removal from the PM) or rGFP-FYVE (to assess accumulation in the endosomes). For β-arrestin recruitment assays, cells were transfected with 0.48 μg of receptor-YFP along with 0.12 μg of β-arrestin-RlucII. For β-arrestin/AP-2 binding experiments, cells were transfected with 1 μg Flag-AT1R, 1 μg β2-Adaptin-YFP, and 0.12 μg β-arrestin2-RlucII. For G protein activation, cells were transfected with 3 μg of sp-Flag-AT1R along with either 4.5 μg of the Gαq-polycistronic BRET sensor or 0.24 μg of the Gαi3-RlucII and 0.6 μg of GFP10-Gγ2 and Gβ1 sensors or 0.12 μg PKN-RBD-RlucII and 0.48 μg of rGFP-CAAX. […]

β-arrestin2 = assay: Confocal microscopy of β-arrestin2-YFP trafficking with AT1R; assay type: cell-based, human; settings: 50 μM; AngII
Method: One day before transfection, cells were seeded in 35-mm glass-bottom dishes (MatTek Corporation) at a density of 1 × 10^5 cells per dish. For the recordings of receptor internalization, HEK293 SL cells were transfected with 2 μg of AT1R-YFP. For the recordings of β-arrestin-2 recruitment to the receptor, HEK293SL cells were transfected with 50 ng of β-arrestin2-YFP and 250 ng of Flag-AT1R or HA-B2R. Forty-eight hours post-transfection, cells were serum starved, preincubated with DMSO (0.1% final concentration) or Rasarfin (50 μM) for 30 min at 37 °C. AT1R-expressing cells were stimulated with angiotensinII (AngII; 100 nM) and B2R-expressing cells were stimulated with bradykinin (BK; 1 μM) for 30 min (receptor-YFP) or 15 min (β-arrestin2-YFP). Cells were imaged with Zeiss LSM-510 and/or LSM-710 laser scanning confocal microscope. To detect YFP, […] and BP 505–550 nm emission filter. Images (2048 × 2048) were collected using a 63x oil immersion lens.

CC(C)C(=O)N1CCN(c2ccc(NC(=O)c3cc4ccccc4o3)cc2Cl)CC1 [Compound 21] was tested, and the IC50 (β2AR; Homo sapiens, read-out: IC50 for inhibition of isoproterenol-mediated β2AR internalization into endosomes) was 15 µM, the “β2AR internalization into endosomes, ligand-promoted BRET (Mean)” value (from here on “β2AR internalization into endosomes”) (β2AR; Log [Comp21] (M) -4.3) was 36.2133 percent compared to DMSO and the “β2AR internalization into endosomes” value (β2AR; Log [Comp21] (M) -4.6) was 48.1993 percent compared to DMSO. For the same compound, the “β2AR internalization into endosomes” value (β2AR; Log [Comp21] (M) -5) was 64.3705 percent compared to DMSO, the “β2AR internalization into endosomes” value (β2AR; Log [Comp21] (M) -5.3) was 89.3672 percent compared to DMSO and the “β2AR internalization into endosomes” value (β2AR; Log [Comp 21] (M) -6) was 95.9498 percent compared to DMSO. The “β2AR internalization into endosomes” value (β2AR; Log [Comp21] (M) -6.3) was 95.3626 percent compared to DMSO, the “β2AR internalization into endosomes” value (β2AR; Log [Comp 21] (M) -7) was 95.4832 percent compared to DMSO and the “β-arrestin trafficking with AT1R into endosomes (microscopy)” value (β-arrestin2) was “prevented β-arrestins’ trafficking with receptors into endosomes”.

Source: PMC8333425, “Discovery of a dual Ras and ARF6 inhibitor from a GPCR endocytosis screen” (Nature Communications, 2021)
